Laboratory results as given in patent publication US20040116523A1, “Use of c4-c10 acids for preventing gram-negative bacterial infections” (priority 2000, published 2004).

What was measured:
S. typhi = conditions: 1.25 g/l; cited from earlier work
[1] = system: Gram-positive or Gram-negative bacteria; conditions: 7.8 mM, in vitro; cited from earlier work
[2] = system: iagA′-lacZ fusion (S. typhi strain Ty267); assay: β-galactosidase activity of the iagA′-lacZ fusion in favourable LB medium; type: cell-based; conditions: fatty acid as sodium salt, 5 mM in favourable LB medium, 6 hours at 37° C.; control 22022 ± 1177
Procedure: The favourable LB medium (high osmolarity and concentration of Ca^2+ions) was defined as being the standard LB medium modified so as to have a final NaCl concentration of 300 mM and a final Ca concentration of 5 mM.
Each of the strains described above was cultured at 37° C. on agar or in TCS broth. The P-galactosidase activity was determined using 4-methyl-umbelliferyl-p-D-galactopyranoside sold by the company Sigma, according to the technique of Klarsfeld et al. (Mol. Mibrobiol., 1994, 13, 585-597). The results, expressed in P-galactosidase units (fluorescence per hour and per OD600), represent the mean of the values obtained in at least three independent experiments. The standard deviations were less than 10% of the values presented. […]
The β-galactosidase activity of the iagA′-lacZ fusion was measured after incubation for 6 hours at 37° C. with shaking (200 rpm).
The S. typhi Ty267 strain (iagA′-lacZ fusion) was seeded into favourable LB medium and into favourable LB medium containing the fatty acid to be tested, in the form of its sodium salt, at the final concentration of 5 mM.

Vibrio cholerae = conditions: 1.25 g/l; cited from earlier work
S. typhi strain Ty2 = assay: Mobility by the U-tube culturing technique; type: cell-based; conditions: U tube supplemented with 5 mM
Procedure: The mobility of each strain was studied using the U-tube culturing technique (Popoff and Le Minor, Guide pour la preparation des serum anti-Salmonella (Guide for preparing salmonella antisera], 1997). When necessary, the culture media were supplemented with chloramphenicol (Cm) at 15 μg/ml.

S. dublin 5917 = assay: Splenic colonization of C57Bl/6 mice infected orally with S. dublin 5917; type: in vivo; conditions: 50 mM in drinking water pH 7.2-7.3; 10^7 bacteria per animal orally; distilled water 7.7 ± 0.4
Procedure: They were infected orally in the following way. The Salmonella strains were cultured in TCS broth for 18 hours at 37° C. with shaking (200 rpm). This culture was then adjusted to […] (in the stationary growth phase, 1 OD600 =1.5 ×10^9 bacteria/ml), and then the number of viable bacteria was controlled by counting on TCS agar.
On the day of infection (DO), the drinking-water bottles of the mice were replaced with bottles containing 100 ml of drinking water to which the required number of bacteria had been added.
After infection for 24 hours ([…]), the bottles containing the contaminated drinking water were replaced with bottles containing uncontaminated drinking water.
Seven days after infection (D+7), the spleens of the mice infected in this way were removed and homogenized separately in 1 ml of physiological saline containing 0.7% of NaCl.
The number of viable bacteria per spleen was determined by plating out dilutions of the homogenate, onto TCS agar.
The S. dublin strain 5917 (Coynault & Norel, Microb. Pathog., 1999, 26, 299-305) and S. enteritidis strain LAS (Thorns et al., Microb. Pathog., 1996, 20, 235-246) were used to infect C57B1/6 mice orally at the dose of 10^7 bacteria per animal.

[3] = system: tviB′-lacZ fusion (S. typhi strain Ty266); assay: β-galactosidase activity of the tviB′-lacZ fusion (specificity control); type: cell-based; conditions: 5 mM in favourable LB medium
Procedure: (§1) Each of the strains described above was cultured at 37° C. on agar or in TCS broth. The P-galactosidase activity was determined using 4-methyl-umbelliferyl-p-D-galactopyranoside sold by the company Sigma, according to the technique of Klarsfeld et al. (Mol. Mibrobiol., 1994, 13, 585-597). The results, expressed in P-galactosidase units (fluorescence per hour and per OD600), represent the mean of the values obtained in at least three independent experiments. The standard deviations were less than 10% of the values presented.
The tviB gene has been characterized in S. typhi, and it encodes a GDP-dehydrogenase involved in the biosynthesis of the Vi antigen, which is the capsular polysaccharide of the typhus bacillus (Waxin et al., Res. Microbiol., 1993, 144, 363-371).
The results are reported on FIG. 4, in which it is seen that samples were taken every two hours in order to measure the OD600 (corresponding to the open symbols) and in order to determine the β-galactosidase activity (corresponding to the solid symbols).

[4] = system: enteropathogenic and enterotoxigenic E. coli; conditions: 1.25 g/l; cited from earlier work
[5] = system: iagA′-lacZcat fusion in S. typhi strain Ty267; assay: "Biotype 100" plate screen for carbon-based substrates that repress the iagA′-lacZcat fusion (β-galactosidase activity); type: cell-based; conditions: "Biotype 100" cupule, amount of substrate not known; favourable LB medium; 36 hours at 37° C.; control cupule without substrate 11 250
Procedure: as §1
A “Biotype 100”® plate sold by the company BioMerieux is composed of 100 microcupules. Each micro-cupule contains a dehydrated carbon-based substrate, with the exception of the first cupule, which is a control without substrate (the amount of dehydrated substrate per cupule is not given by the manufacturer).
In the context of the present example, these plates were used to search for carbon-based compounds which would block the expression of the invasion genes in Salmonella.
For this, the S. typhi strain Ty267, which is a derivative of the parental strain Ty2 carrying the iagA′-lacZcat transcriptional fusion (Table I), was cultured in TCS broth for 18 hours at 37° C. with shaking (200 rpm).
This culture was then diluted 100-fold in favourable LB medium (0.6 ml of culture for 60 ml of favourable LB), and then this suspension was used immediately to seed the 100 cupules of a “Biotype 100”® plate, in a proportion of 450 μl of suspension per cupule.
After incubation for 36 hours in an incubator at 37° C., the activity of the iagA′-lacZcat fusion in the Ty267 strain was determined for the culture of each cupule.
By comparing the value of the P-galactosidase activity measured in a cupule containing a carbon-based substrate with that of the control cupule without substrate, it was possible to investigate whether a substrate had no effect on, activated or repressed the expression of the iagA′-lacZcat fusion.
The S. typhi strain Ty267 (iagA′-lacZ fusion), suspended in the favourable LB medium, was used to seed the “Biotype 100”® plates.
The β-galactosidase activity expressed by the iagA′-lacZ fusion was determined for the culture in each cupule. With respect to the β-galactosidase activity measured in the control cupule without substrate (11 250 β-galactosidase units), no substrate caused an increase in the expression of the iagA′-lacZ fusion.

Shigella sonnei = conditions: 1.25 g/l; cited from earlier work
[6] = system: iagA′-lacZ fusion (S. typhi strain Ty267); assay: β-galactosidase activity of the iagA′-lacZ fusion in favourable LB medium; type: cell-based

Compound: CCCCCCCC(=O)[O-].[Na+] [sodium caprylate]
- bactericidal activity in vitro on S. typhi (S. typhi): no bactericidal activity
- bacteriostatic or bactericidal effect on Gram-positive or Gram-negative bacteria [1]: no bacteriostatic or bactericidal effect
- β-Galactosidase activity of the iagA′-lacZ fusion (Table VII) [2]: 445 ± 69 β-galactosidase units
- bactericidal activity in vitro on Vibrio cholerae (Vibrio cholerae): no bactericidal activity
- mobility of the Ty2 strain (S. typhi strain Ty2): same mobility
- Number of viable bacteria in the spleen (mean in log10) (S. dublin 5917): 2.1 ± 0.2 log10
- effect on the expression of the tviB′-lacZ fusion [3]: no significant effect
- bactericidal activity in vitro on enteropathogenic and enterotoxigenic E. coli [4]: no bactericidal activity
- β-galactosidase activity expressed by the iagA′-lacZ fusion in the cupule [5]: 47 β-galactosidase units
- bactericidal activity in vitro on Shigella sonnei (Shigella sonnei): no bactericidal activity
- β-galactosidase activity expressed by the iagA′-lacZ fusion as % of that in favourable LB medium without the substance ([6]; 1 mM in favourable LB medium): ~20%
- expression of the iagA gene (iagA′-lacZ fusion) ([6]; concentration greater than or equal to 2.5 mM, favourable LB medium): very strongly represses
